In US20230020663A1, “SULFONAMIDE INHIBITORS AS CTPS1 INHIBITORS” (Step Pharma S.A.S., priority 2019, published 2023):

tested on: human CTPS1 versus CTPS2; assay: Human CTPS1 versus CTPS2 selectivity assessment by RapidFire/MS analysis; type: biochemical; settings: Table 26; RapidFire/MS IC50 ratio
Procedure: Human CTPS1 versus CTPS2 Selectivity Assessment by RapidFire/MS Analysis.
The enzyme inhibitory activities against each target isoform of interest may be determined for the compounds of the invention using an optimised RapidFire high-throughput mass spectrometry (RF/MS) assay format. RF/MS assays for both human CTPS1 and CTPS2 may be performed in assay buffer consisting of 50 mM HEPES (Merck), 20 mM MgCl2, 5 mM KCl, 1 mM DTT, 0.01% Tween-20, pH to 8.0 accordingly. Human full-length active C-terminal FLAG-His-tag CTPS1 (UniProtKB—P17812, CTPS[1-591]-[…]) may be obtained from Proteros biostructures GmbH. Human full length active C-terminal FLAG-His-Avi tagged CTPS2 (UniProtKB-Q9NRF8, CTPS2 [1-586]-[…]) may be obtained from Harker Bio.
Human CTPS (1 or 2) protein may be prepared in 1× assay buffer to the final working protein concentration required for the reaction. A 2 uL volume per well of 2×CTPS (1 or 2) protein may be mixed with 40 nL of compound using acoustic (ECHO) delivery and incubated for 10 minutes at 25° C. Each isoform enzymatic reaction may be subsequently initiated by addition of 2 uL per well of a 2× substrate mix in assay buffer. For hCTPS1: ATP (0.3 mM), UTP (0.2 mM), GTP (0.07 mM) and L-glutamine (0.1 mM). For hCTPS2: ATP (0.1 mM), UTP (0.04 mM), GTP (0.03 mM) and L-glutamine (0.1 mM). Each mixture may be incubated for an appropriate amount of time per isoform within the determined linear phase of the reaction at 25′C. A 60 uL volume of stop solution (1% formic acid with 0.5 uM ^13C9-^15N3-CTP in H2O) may be added and the plate immediately heat-sealed and centrifuged for 10 minutes at 4,000 rpm. Following centrifugation, plates may be loaded onto the Agilent RapidFire microfluidic solid phase extraction system coupled to an API4000 triple quadrupole mass spectrometer (RF/MS) for analysis.
In all cases, the enzyme converts UTP to CTP. Highly specific and sensitive multiple reaction monitoring (MRM) MS methods may be optimised for the detection of the enzymatic reaction product, CTP, and the stable isotope labelled product standard ^13C9-^15N3-CTP. Readout for data analysis may be calculated as the ratio between the peak area of the product CTP and the internal standard ^13C9-^15N3-CTP. For data reporting, the following equation may be used: […]
For each screening plate, the means of the negative (DMSO) and positive control values were used for the calculation of the respective assay window (S/B) and Z′ values. The median of the respective control values was used for calculation of percent inhibition according to the following equation: […]
Percentage inhibition was then plotted against compound concentration, and the 50% inhibitory concentration (IC50) was determined from the resultant concentration-response curve.
Fold selectivity between CTPS1 and CTPS2 was subsequently calculated according to the following equation: […]

Structure (SMILES) | Selectivity (fold selectivity between CTPS1 and CTPS2)
O=C(Cc1ccnc(NS(=O)(=O)C2CC2)n1)Nc1ccc(-c2cccnc2)cc1 [Example P16] | ++ (>30-60 fold (++))
CCOc1cncc(-c2ccc(NC(=O)C(CCOC)c3ccnc(NS(=O)(=O)C4CC4)n3)nc2)n1 (stereo not shown) [Example P145] | +++ (>60 fold (+++))
CCOc1cncc(-c2ccc(C(=O)NCc3ccnc(NS(=O)(=O)C4CC4)n3)cc2)n1 [Example P118] | +++ (>60 fold (+++))
CCOc1cncc(-c2cnc(NC(=O)C(CC)c3ccnc(NS(=O)(=O)C4CC4)n3)c(C)c2)n1 (stereo not shown) [Example P155] | + (2-30 fold (+))
CCOc1cncc(-c2ccc(C(=O)NC(CC)c3ccnc(NS(=O)(=O)C4CC4)n3)c(F)c2)n1 (stereo not shown) [Example P216] | +++ (>60 fold (+++))
CCOc1cncc(-c2ccc(NC(=O)C3(c4ccnc(NS(=O)(=O)C5CC5)n4)CCCC3)nc2)n1 [Example P136] | +++ (>60 fold (+++))
CCOc1cncc(-c2ccc(NC(=O)C3(c4cncc(NS(=O)(=O)C5CC5)n4)CCOCC3)nc2)n1 [Example P197] | +++ (>60 fold (+++))
CCOc1cncc(-c2ccc(NC(=O)C(C)(C)c3ccnc(NS(C)(=O)=O)n3)nc2)n1 [Example P76] | ++ (>30-60 fold (++))
CC(C)(C(=O)Nc1ccc(-c2cncc(C3CC3)n2)cc1F)c1ccnc(NS(=O)(=O)C2CC2)n1 [Example P128] | + (2-30 fold (+))
CCOc1cncc(-c2ccc(NC(=O)C3(c4ccnc(NS(=O)(=O)C5CC5)n4)CCOCC3)nc2)n1 [Example P115, 4-(2-(Cyclopropanesulfonamido)pyrimidin-4-yl)-N-(5-(6-ethoxypyrazin-2-yl)pyridin-2-yl)tetrahydro-2H-pyran-4-carboxamide] | +++ (>60 fold (+++))
CCOc1cncc(-c2ccc(NC(=O)C3(c4ccnc(NS(=O)(=O)C5CC5)n4)CCCC3)cc2)n1 [Example P2, 1-(2-(Cyclopropanesulfonamido)pyrimidin-4-yl)-N-(4-(6-ethoxypyrazin-2-yl)phenyl)cyclopentanecarboxamide] | +++ (>60 fold (+++))
CCC(C(=O)Nc1ncc(-c2cncc(OC)n2)cc1F)c1ccnc(NS(=O)(=O)C2CC2)n1 (stereo not shown) [Example P158] | + (2-30 fold (+))
CCOc1cncc(-c2ccc(NC(=O)C(F)(CC)c3cncc(NS(=O)(=O)C4CC4)n3)nc2)n1 (single isomer, unassigned) [Example P207] | + (2-30 fold (+))
CCOc1cncc(-c2ccc(NC(=O)C(CCOC)c3ccnc(NS(=O)(=O)C4CC4)n3)c(F)c2)n1 (stereo not shown) [Example P146] | +++ (>60 fold (+++))
CCOc1cncc(-c2ccc(NC(=O)C(C)(CC)c3ccnc(NS(=O)(=O)C4CC4)n3)nc2)n1 (stereo not shown) [Example P163] | +++ (>60 fold (+++))
CC(C)Oc1cncc(-c2ccc(NC(=O)C(C)(C)c3ccnc(NS(=O)(=O)C4CC4)n3)c(F)c2)n1 [Example P39] | + (2-30 fold (+))
CCC(C(=O)Nc1ccc(-c2cncc(Cl)c2)cc1)c1ccnc(NS(=O)(=O)C2CC2)n1 (stereo not shown) [Example P1, N-(4-(5-Chloropyridin-3-yl)phenyl)-2-(2-(cyclopropanesulfonamido)pyrimidin-4-yl)butanamide] | + (2-30 fold (+))

Structure (SMILES) | Selectivity (fold selectivity between CTPS1 and CTPS2)
CCC(C(=O)Nc1ccc(-c2cncc(C(F)(F)F)n2)cn1)c1ccnc(NS(=O)(=O)C2CC2)n1 (stereo not shown) [Example P87] | ++ (>30-60 fold (++))
CCOc1cncc(-c2ccc(NC(=O)C(CC)c3cncc(NS(=O)(=O)C4CC4)n3)cc2)n1 (stereo not shown) [Example P202] | +++ (>60 fold (+++))
CCOc1cncc(-c2ccc(NC(=O)C3(c4ccnc(NS(=O)(=O)C5CC5)n4)CC3)cc2)n1 [Example P83] | +++ (>60 fold (+++))
CCOc1cncc(-c2ccc(NC(=O)C(F)(CC)c3ccnc(NS(=O)(=O)C4CC4)n3)nc2)n1 (single isomer, unassigned) [Example P114, 2-(2-(cyclopropanesulfonamido)pyrimidin-4-yl)-N-(5-(6-ethoxypyrazin-2-yl)pyridin-2-yl)-2-fluorobutanamide] | +++ (>60 fold (+++))
CCOc1cncc(-c2ccc(NC(=O)C(C)(OC)c3cncc(NS(=O)(=O)C4CC4)n3)nc2)n1 (stereo not shown) [Example P205b] | ++ (>30-60 fold (++))
CCOc1cncc(-c2ccc(NC(=O)C(C)(C)c3ccnc(NS(=O)(=O)C4CC4)n3)c(F)c2)n1 [Example P38] | + (2-30 fold (+))
CCOc1cncc(-c2ccc(NC(=O)Cc3ccnc(NS(=O)(=O)C4CC4)n3)cc2)n1 [Example P18, 2-(2-(Cyclopropanesulfonamido)pyrimidin-4-yl)-N-(4-(6-ethoxypyrazin-2-yl)phenyl)acetamide] | ++ (>30-60 fold (++))
CCOc1cncc(-c2ccc(NC(=O)C(CC)c3cccc(NS(=O)(=O)C4CC4)n3)nc2)n1 (stereo not shown) [Example P188] | ++ (>30-60 fold (++))
CCOc1cncc(-c2ccc(NC(=O)C(CCOC)c3ccnc(NS(=O)(=O)C4CC4)n3)cc2)n1 (stereo not shown) [Example P110] | ++ (>30-60 fold (++))
CCOc1cncc(-c2ccc(NC(=O)C(CC)c3ccnc(NS(=O)(=O)C4CC4)n3)c(F)c2)n1 (stereo not shown) [Example P96] | + (2-30 fold (+))
CCOc1cncc(-c2ccc(NC(=O)C(C)(C)c3ccnc(NS(=O)(=O)CC)n3)cc2)n1 [Example P74] | ++ (>30-60 fold (++))
CCOc1cncc(-c2ccc(NC(=O)C(F)(CC)c3ccnc(NS(=O)(=O)C4CC4)n3)nc2)n1 (racemic) [Example P112, 2-(2-(Cyclopropanesulfonamido)pyrimidin-4-yl)-N-(5-(6-ethoxypyrazin-2-yl)pyridin-2-yl)-2-fluorobutanamide] | ++ (>30-60 fold (++))
CCOc1cncc(-c2ccc(NC(=O)C3(c4ccnc(NS(=O)(=O)C5CC5)n4)CCOCC3)c(F)c2)n1 [Example P143] | +++ (>60 fold (+++))
CCC(C(=O)Nc1ccc(-c2cncc(OC)n2)cn1)c1ccnc(NS(=O)(=O)C2CC2)n1 (stereo not shown) [Example P159] | +++ (>60 fold (+++))
CCOc1cncc(-c2ccc(NC(=O)C(CC)c3cccc(NS(=O)(=O)C4CC4)n3)cc2)n1 (stereo not shown) [Example P191] | ++ (>30-60 fold (++))
CCC(C(=O)Nc1ccc(-c2cncc(OCC(F)(F)F)n2)cc1F)c1ccnc(NS(=O)(=O)C2CC2)n1 (stereo not shown) [Example P98] | +++ (>60 fold (+++))

same assay, conditions: Table 27; RapidFire/MS IC50 ratio

Structure (SMILES) | Selectivity (fold selectivity between CTPS1 and CTPS2)
CCOc1cncc(-c2ccc(NC(=O)C3(c4ccnc(NS(=O)(=O)C5CC5)n4)CCN(S(C)(=O)=O)CC3)nc2)n1 [Example P251] | +++ (>60 fold (+++))
CCOc1cncc(-c2ccc(NC(=O)C3(c4ccnc(NS(=O)(=O)C5CC5)n4)CCC(O)CC3)nc2)n1 (single isomer, unassigned) [Example P228, 1-(2-(cyclopropanesulfonamido)pyrimidin-4-yl)-N-(5-(6-ethoxypyrazin-2-yl)pyridin-2-yl)-4-hydroxycyclohexanecarboxamide] | + (2-30 fold (+))
CCOc1cncc(-c2ccc(NC(=O)C3(c4ccnc(NS(=O)(=O)C5CC5)n4)CCC4(CC3)OCCO4)nc2)n1 [Example P244, 8-(2-(cyclopropanesulfonamido)pyrimidin-4-yl)-N-(5-(6-ethoxypyrazin-2-yl)pyridin-2-yl)-1,4-dioxaspiro[4.5]decane-8-carboxamide] | +++ (>60 fold (+++))
CCOc1cncc(-c2ccc(NC(=O)C3(c4ccnc(NS(=O)(=O)C5CC5)n4)CCC(O)CC3)nc2)n1 (single isomer, unassigned) [Example P227, 1-(2-(cyclopropanesulfonamido)pyrimidin-4-yl)-N-(5-(6-ethoxypyrazin-2-yl)pyridin-2-yl)-4-hydroxycyclohexanecarboxamide] | +++ (>60 fold (+++))
